Assay results: article PMC2914301 (Cancer research, 2009)
“Also recorded” adds a separate entry of the source.

Legend:
Panc-1 = assay: Morphologic apoptosis assay in Panc-1 cells; type: cell-based, Human
MiaPaCa-2 = assay: Morphologic apoptosis assay in MiaPaCa-2 cells; type: cell-based, Human
[1] = tested on: BxPC-3 pancreatic cancer xenografts; assay: Antitumor activity against BxPC-3 xenografts in scid mice; type: in vivo; conditions: 125 mg/kg i.p. twice a day for 5 days
[2] = Preliminary single-dose toxicity, i.p.; type: in vivo; conditions: single doses up to 250 mg/kg i.p.; preliminary studies
GSK3β and p70S6K = assay: Western analysis of AKT downstream targets in BxPC-3 cells; type: cell-based, Human; conditions: Western blot
phospho-Ser^241-PDK1 = assay: Western analysis of phospho-Ser241-PDK1 in BxPC-3 cells; type: cell-based, Human; conditions: at higher concentrations
PH domain of PDK1 [3] = molecular target: T1, PH domain of PDK1 (Homo sapiens, UniProt O15530); assay: SPR direct binding to PDK1 PH domain
T1 sequence (O15530 459-550 limits assumed): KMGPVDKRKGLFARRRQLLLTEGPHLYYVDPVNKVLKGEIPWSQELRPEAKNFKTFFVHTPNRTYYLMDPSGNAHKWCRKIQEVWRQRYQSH

PH domain of PDK1 [4] = molecular target: T1, PH domain of PDK1; assay: SPR competitive binding

## CCCCCCCCCCCCc1ccc(S(=O)(=O)Nc2nncs2)cc1 [Compound 27, 4-dodecyl-N-(1,3,4-thiadiazol-2-yl) benzenesulfonamide]
Panc-1
  Apoptosis at 20 μmol/L: 40.0 ± 2.9%
MiaPaCa-2
  Apoptosis at 20 μmol/L: 31.3 ± 1.6%
[1]
  Antitumor activity: significant antitumor activity with cessation of tumor growth and even regression; also recorded: complete cessation of tumor growth and even some regression
[2]
  Toxicity of single doses: no toxicity
GSK3β and p70S6K
  Effect on GSK3β and p70S6K phosphorylation (in words): inhibited in a dose-dependent manner
phospho-Ser^241-PDK1
  Effect on phosphorylation of PDK1 on Ser241 (in words): slightly affected
PH domain of PDK1 [3]
  Kd: 90.1 µM
PH domain of PDK1 [4]
  Ki: 5.5 µM
